The test deals with PD-1/PD-L1 (Homo sapiens (Human), UniProt Q9NZQ7). The test is described as follows: PD-1/PD-L1 Homogeneous Time-Resolved Fluorescence (HTRF) Binding Assay. To be noted: recombinant human PD-1 (3 nM) and PD-L1 (10 nM), 25° C., PBS pH 7.4. A digest of the protocol:
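Fc-tagged human PD-1 (25-167, 3 nM) and His-tagged PD-L1 (19-238, 10 nM) preincubated with inhibitor 40 min in PBS pH 7.4, 0.05% Tween-20, 0.1% BSA, 1% DMSO, 25 °C. Binding detected by HTRF (Eu anti-IgG/APC anti-His, 665/620 nm) after 60 min; IC50 from percent control activity.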
For orientation: In TR-FRET formats the signal depends on donor and acceptor labels being close together.

Chain of PD-1/PD-L1 (Q9NZQ7 19-238): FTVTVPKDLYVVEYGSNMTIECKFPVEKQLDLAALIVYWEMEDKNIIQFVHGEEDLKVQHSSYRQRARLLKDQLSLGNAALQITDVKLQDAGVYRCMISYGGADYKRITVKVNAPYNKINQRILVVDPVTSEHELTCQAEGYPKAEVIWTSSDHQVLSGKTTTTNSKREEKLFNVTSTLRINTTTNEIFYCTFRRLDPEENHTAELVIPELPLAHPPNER

As a reminder, the IC50 is the point on the concentration scale where inhibition reaches its midpoint. Regarding `Cc1c(Nc2nccc3cc(CN4CC[C@@H](O)C4)cnc23)cccc1-c1cccc(-c2nc3cc(CN4CC[C@@H](C(=O)O)C4)cc(Cl)c3o2)c1C` [Example 18, (R)-1-((7-chloro-2-(3′-(3-(((R)-3-hydroxypyrrolidin-1-yl)methyl)-1,7-naphthyridin-8-ylamino)-2,2′-dimethylbiphenyl-3-yl)benzo[d]oxazol-5-yl)methyl)pyrrolidine-3-carboxylic acid], the IC50 is at most 10 nM. As to `Cc1c(-c2nc3cc(CN4CC[C@@H](C(=O)O)C4)cc(C#N)c3o2)cccc1-c1cccc(-c2nc3c(s2)CN(C(=O)CN2CCN(C)CC2)C3)c1C` [Example 108, (R)-1-((7-cyano-2-(2,2′-dimethyl-3′-(5-(2-(4-methylpiperazin-1-yl)acetyl)-5,6-dihydro-4H-pyrrolo[3,4-d]thiazol-2-yl)biphenyl-3-yl)benzo[d]oxazol-5-yl)methyl)pyrrolidine-3-carboxylic acid], the IC50 was at most 10 nM.

Consider `Cc1c(Nc2nccc3cc(CN4CC[C@H](O)C4)cnc23)cccc1-c1cccc(-c2nc3cc(CN(C)CCC(=O)O)cc(Cl)c3o2)c1C` [Example 21, (S)-3-(((7-chloro-2-(3′-(3-((3-hydroxypyrrolidin-1-yl)methyl)-1,7-naphthyridin-8-ylamino)-2,2′-dimethylbiphenyl-3-yl)benzo[d]oxazol-5-yl)methyl)(methyl)amino)propanoic acid], for which the IC50 was at most 10 nM. Turning to `Cc1c(-c2nc3cc(CN4CCC(C(=O)O)CC4)cc(C#N)c3o2)cccc1-c1cccc(NC(=O)c2nc3c(n2C)CCNC3)c1Cl` [Example 154, 1-((2-(2′-chloro-2-methyl-3′-(1-methyl-4,5,6,7-tetrahydro-1H-imidazo[4,5-c]pyridine-2-carboxamido)biphenyl-3-yl)-7-cyanobenzo[d]oxazol-5-yl)methyl)piperidine-4-carboxylic acid], the IC50 was at most 10 nM.

On to `Cc1c(Nc2ncnc3cc(CN4CC[C@@H](O)C4)cnc23)cccc1-c1cccc(-c2nc3cc(CN4CCC[C@H](C(=O)O)C4)cc(C#N)c3o2)c1C` [Example 206, (S)-1-((7-cyano-2-(3′-(7-(((R)-3-hydroxypyrrolidin-1-yl)methyl)pyrido [3,2-d]pyrimidin-4-ylamino)-2,2′-dimethylbiphenyl-3-yl)benzo[d]oxazol-5-yl)methyl)piperidine-3-carboxylic acid], for which the IC50 is at most 10 nM. As for `Cc1c(NC(=O)c2nc3c(n2C)CCN(C(C)C)C3)cccc1-c1cccc(-c2nc3cc(CN4CC[C@H](C(=O)O)C4)cc(C#N)c3o2)c1C` [Example 38, (S)-1-((7-cyano-2-(3′-(5-isopropyl-1-methyl-4,5,6,7-tetrahydro-1H-imidazo[4,5-c]pyridine-2-carboxamido)-2,2′-dimethylbiphenyl-3-yl)benzo[d]oxazol-5-yl)methyl)pyrrolidine-3-carboxylic acid], the IC50 was at most 10 nM. With `CCN1CCc2c(nc(C(=O)Nc3cccc(-c4cccc(-c5nc6cc(CN7CC[C@@H](C(=O)O)C7)cc(C#N)c6o5)c4C)c3Cl)n2C)C1` [Example 143, (R)-1-((2-(2′-chloro-3′-(5-ethyl-1-methyl-4,5,6,7-tetrahydro-1H-imidazo[4,5-c]pyridine-2-carboxamido)-2-methyl-[1,1′-biphenyl]-3-yl)-7-cyanobenzo[d]oxazol-5-yl)methyl)pyrrolidine-3-carboxylic acid] the figure was at most 10 nM.

For the compound `Cc1c(Nc2ncnc3cc(CN4CC[C@@H](O)C4)cnc23)cccc1-c1cccc(-c2nc3cc(CN4CC[C@@](C)(C(=O)O)C4)cc(C#N)c3o2)c1C` [Example 205, (R)-1-((7-cyano-2-(3′-(7-(((R)-3-hydroxypyrrolidin-1-yl)methyl)pyrido [3,2-d]pyrimidin-4-ylamino)-2,2-dimethylbiphenyl-3-yl)benzo[d]oxazol-5-yl)methyl)-3-methylpyrrolidine-3-carboxylic acid], the IC50 was at most 10 nM. With `Cc1c(NC(=O)c2nc3c(n2C)CCN(C)C3)cccc1-c1cccc(-c2nc3cc(CN(C)CCC(=O)O)cc(Cl)c3o2)c1C` [Example 42, 3-(((7-chloro-2-(3′-(1,5-dimethyl-4,5,6,7-tetrahydro-1H-imidazo[4,5-c]pyridine-2-carboxamido)-2,2′-dimethylbiphenyl-3-yl)benzo[d]oxazol-5-yl)methyl)(methyl)amino) propanoic acid] the figure was at most 10 nM.

Consider `Cc1c(-c2nc3c(o2)CCNC3)cccc1-c1cccc(-c2nc3cc(CN4CC(C(=O)O)C4)cc(Cl)c3o2)c1C` [Example 77, 1-((7-chloro-2-(2,2′-dimethyl-3′-(4,5,6,7-tetrahydrooxazolo[4,5-c]pyridin-2-yl)-[1,1′-biphenyl]-3-yl)benzo[d]oxazol-5-yl)methyl)azetidine-3-carboxylic acid], for which the IC50 was at most 10 nM. Take `Cc1c(-c2nc3cc(CN4CC[C@H](C(=O)O)C4)cc(C#N)c3o2)cccc1-c1cccc(NC(=O)c2nc3c(n2C)CCNC3)c1Cl` [Example 92, (S)-1-((2-(2′-chloro-2-methyl-3′-(1-methyl-4,5,6,7-tetrahydro-1H-imidazo[4,5-c]pyridine-2-carboxamido)biphenyl-3-yl)-7-cyanobenzo[d]oxazol-5-yl)methyl)pyrrolidine-3-carboxylic acid]: the IC50 is at most 10 nM.

For the compound `Cc1c(-c2nc3cc(CN4CC[C@@H](C(=O)O)C4)cc(C#N)c3o2)cccc1-c1cccc(Nc2cncc3nccnc23)c1Cl` [Example 15, (R)-1-((2-(2′-chloro-2-methyl-3′-(pyrido[3,4-b]pyrazin-8-ylamino)biphenyl-3-yl)-7-cyanobenzo[d]oxazol-5-yl)methyl)pyrrolidine-3-carboxylic acid], the IC50 is at most 10 nM.

Regarding `Cc1c(-c2nc3cc(CN4CC[C@@H](C(=O)O)C4)cc(C#N)c3o2)cccc1-c1cccc(Nc2nccc3cc(C4CCCN4)cnc23)c1Cl` (stereo partly drawn) [Example 97, (3R)-1-((2-(2′-chloro-2-methyl-3′-(3-(pyrrolidin-2-yl)-1,7-naphthyridin-8-ylamino)biphenyl-3-yl)-7-cyanobenzo[d]oxazol-5-yl)methyl)pyrrolidine-3-carboxylic acid], the IC50 is at most 10 nM.

Take `Cc1c(Nc2nccc3cc(CN4CCCC4)cnc23)cccc1-c1cccc(-c2nc3cc(CN4CC[C@@](C)(C(=O)O)C4)cc(C#N)c3o2)c1C` [Example 193, (R)-1-((7-cyano-2-(2,2′-dimethyl-3′-(3-(pyrrolidin-1-ylmethyl)-1,7-naphthyridin-8-ylamino)biphenyl-3-yl)benzo[d]oxazol-5-yl)methyl)-3-methylpyrrolidine-3-carboxylic acid]: the IC50 is at most 10 nM.

`Cc1c(-c2nc3cc(CN4CC[C@@H](C(=O)O)C4)cc(Cl)c3o2)cccc1-c1cccc(Nc2nccc3cc(CN4CC[C@@H](O)C4)cnc23)c1Cl` [Example 82, (R)-1-((7-chloro-2-(2′-chloro-3′-(3-(((R)-3-hydroxypyrrolidin-1-yl)methyl)-1,7-naphthyridin-8-ylamino)-2-methylbiphenyl-3-yl)benzo[d]oxazol-5-yl)methyl)pyrrolidine-3-carboxylic acid]: the IC50 was at most 10 nM. With `Cc1c(-c2nc3c(o2)CN(C(=O)CN2CC[C@@H](O)C2)C3)cccc1-c1cccc(-c2nc3cc(CN4CC[C@@H](C(=O)O)C4)cc(C#N)c3o2)c1C` [Example 126, (R)-1-((7-cyano-2-(3′-(5-(2-((R)-3-hydroxypyrrolidin-1-yl)acetyl)-5,6-dihydro-4H-pyrrolo[3,4-d]oxazol-2-yl)-2,2′-dimethyl-[1,1′-biphenyl]-3-yl)benzo[d]oxazol-5-yl)methyl)pyrrolidine-3-carboxylic acid] the figure was at most 10 nM; with `Cc1c(-c2nc3cc(CN4CC[C@@H](C(=O)O)C4)cc(Cl)c3o2)cccc1-c1cccc(N2CCC(NCC3(CO)CCC3)CC2)c1Cl` [Example 46, (R)-1-((7-chloro-2-(2′-chloro-3′-(4-((1-(hydroxymethyl)cyclobutyl)methylamino)piperidin-1-yl)-2-methylbiphenyl-3-yl)benzo[d]oxazol-5-yl)methyl)pyrrolidine-3-carboxylic acid], at most 10 nM.

Values taken from patent publication US10308644B2, “Heterocyclic compounds as immunomodulators” (Incyte Corporation, priority 2016, dated 2019).
